The record followed here is US5246956A, “N-imidazolyl derivatives of substituted alkoxyimino tetrahydronaphthalenes and chromans having antithromboxane A2 activity” (Farmitalia Carlo Erba S.r.l., priority 1991, dated 1993).

The target of test [1] is T1, TXA2 receptor (washed human platelets) (Homo sapiens, UniProt P21731).
T1 construct: endogenous in cells; host or cells: washed human platelets from healthy volunteers
T1 sequence (P21731 1-343): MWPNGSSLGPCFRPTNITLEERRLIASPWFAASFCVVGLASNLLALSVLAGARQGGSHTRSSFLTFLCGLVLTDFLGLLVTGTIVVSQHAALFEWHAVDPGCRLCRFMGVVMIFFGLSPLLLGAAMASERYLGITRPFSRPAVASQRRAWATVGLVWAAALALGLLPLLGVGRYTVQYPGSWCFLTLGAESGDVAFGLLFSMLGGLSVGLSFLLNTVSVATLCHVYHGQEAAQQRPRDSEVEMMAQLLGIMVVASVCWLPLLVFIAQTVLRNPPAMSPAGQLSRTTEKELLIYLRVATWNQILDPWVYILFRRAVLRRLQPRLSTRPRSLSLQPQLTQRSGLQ
The experiment in a line: Displacement of [^3 H]-SQ 29,548 binding to washed human platelets (TxA2 antagonism). On the procedure:
(§1) The effects of a representative group of compounds of the invention were evaluated, in comparison with known compounds, on TxB2 synthesis inhibition in vitro, in whole blood of normal rates, and on TxA2 antagonism in a binding assay in washed human platelets.
Displacement of [^3 H]--SO 29,548 binding to washed human platelets.
Blood from healthy volunteers of both sexes who had not taken any medication for at least 10 days was collected into one-tenth volume of acid citrate dextrose containing indomethacin (28 μM). Platelet rich plasma (PRP), obtained by centrifugation of the blood at 200 xg for 20 min. was washed twic (1000 xg for 10 min). The platelets are then resuspended in Tyrode-Hepes buffer (pH 7.4) to a final concentration of […] and incubated for 0-60 min at 25° with [^3 H]--SQ 29,548 (5 nM). For displacement experiments various concentrations (10^-9 -10^-4 M) of competing ligands were added and incubated for 30 min at 25° C. […] After the incubation, 4 ml of ice-cold TRIS-HC1 buffer (10 mM, pH 7.4) was added to each tube and the reaction mixture was immediately filtered by suction through a Whatman GF/C glass filter disc which was washed 2 times with ice-cold TRIS-CH1 (4 ml) and counted for radioactivity by a Packard β-counter.
The binding data were analysed by computerized non-linear curve fitting using the Ligand program and expressed as ID50.

For the next test, the system named is TxB2 synthesis. The test is described as follows: TxB2 synthesis inhibition in vitro, in whole blood of normal rats. The format is cell-based, rat (Sprague Dawley). On the procedure:
as §1
TxB2 synthesis inhibition
Blood was withdrawn from the abdominal aorta of normal Sprague Dawley rats (Charles River Italy) under light ether anaesthesia. The blood was immediately divided in portions of 0.5 ml and distributed in glass tubes each containing a concentration of the test compound, or of the reference compounds.
Samples were then allowed to clot for 1 hour at 37° C., centrifuged at 3000 rpm for 10 min, and serum collected and stored at -20° C. until assayed.

The mark [2] stands for this setting: Table 3, rat whole blood, read-out: TxB2 synthesis IC50.
Where [3] appears, read: Rattus norvegicus, Table 2, whole blood of normal rats, 1 hour at 37° C., read-out: In vitro effect on TxB2 synthesis in normal rats, IC50 (whole blood).

Read-outs that look alike come from different tables or passages of the source.

A word on the IC50: it is the point on the concentration scale where inhibition reaches its midpoint. Turning to `COc1ccc2c(c1)/C(=N/OCCCCC(=O)O)C(n1ccnc1)C(c1ccc(OC)c(OC)c1)O2` (racemic) [FCE 26603, (+-)-(Z)-5-[[2-(3,4-dimethoxyphenyl)-3-(1H-imidazol-1-yl)-2,3-dihydro-6-methoxy-4H-1-benzopyranylidene]aminoxy]pentanoic acid], the IC50 in test [1] (Table 3, washed human platelets, read-out: ^3 H-SQ 29548 binding displacement IC50) is 0.1 µM; in the test on TxB2 synthesis (setting [2]), 0.2 µM.
In the case of `CC(=O)Oc1ccccc1C(=O)O` [ASA, acetylsalicilic acid], the IC50 with TxB2 synthesis (Rattus norvegicus, 1 h, read-out: In vitro effect on TxB2 synthesis in normal rats, IC50 (whole blood)) amounted to 31 µM.
Regarding `O=C(O)Cc1ccc(CCNS(=O)(=O)c2ccc(Cl)cc2)cc1` [BM 13505], in the test with TxB2 synthesis (Table 3, rat whole blood), the “TxB2 synthesis IC50” value was “inactive”.
As to `O=C(O)COc1ccc(CCNS(=O)(=O)c2ccccc2)cc1` [BM 13177], in the test on TxB2 synthesis (Table 3, rat whole blood), the “TxB2 synthesis IC50” value was “inactive”.
Turning to `O=C(O)c1ccc(OCCn2ccnc2)cc1` [Dazoxiben], the “^3 H-SQ 29548 binding displacement IC50” value in test [1] (Table 3, washed human platelets) was “inactive”. The IC50 in the test with TxB2 synthesis (setting [3]) and in the test on TxB2 synthesis (setting [2]) was 1.2 µM each time.
For `O=C(O)CCCCCO/N=C1/c2ccccc2OC(c2ccccc2)C1n1ccnc1` (racemic) [FCE 27016, (+-)-(Z)-6-[[2-phenyl-3-(1H-imidazol-1-yl)-2,3-dihydro-4H-benzopyranylidene]aminoxy]hexanoic acid], the IC50 in test [1] (Table 1, washed human platelets, 30 min at 25° C., read-out: ^3 H SQ 29548 binding displacement (washed human platelet) IC50) worked out at 0.033 µM. The TxA2 antagonism entry in test [1] (platelets, in words) is reported as “patent TxA2 antagonist”. Besides, the “affinity for the receptor compared with BM 13505 and BM 13177” value in test [1] (washed human platelets, in words) was “greater than those of compounds BM 13505 and BM 13177”.
On to `CC1Oc2ccccc2/C(=N/OCCCCC(=O)O)C1n1ccnc1` (stereo not shown) [FCE 26365, 5-[[2-methyl-3-(1H-imidazol-1-yl)-2,3-dihydro-4H-1-benzopyranylidene]aminoxy]pentanoic acid], for which the IC50 in the test on TxB2 synthesis (setting [3]) is 0.027 µM. For the same compound, the “inhibition of platelet TxA2 synthase” value in the test with TxB2 synthesis (in words) is on record as “potent inhibitor of platelet TxA2 synthase”.
